{"source": "patent US10729759B2", "about": "“Fluorocarbon-linked peptide formulation” (priority 2010, dated 2020)", "key": {"[1]": {"format": "physicochemical", "details": "for Percentage acetic acid (% v/v): minimum concentration for acceptable dispersibility and solubility: FCP 2 μmol/ml after acetic acid dispersion; for Visual appearance after dispersion: at the listed acetic acid concentration, FCP 2 μmol/ml", "protocol": "In order to limit the concentration of acetic acid downstream in the formulation process and in the final product, the lowest concentration of acetic acid in water to achieve efficient dispersion and maintain visible solubility was determined for each fluorocarbon-linked peptide. When using mannitol as a cryprotectant, it is important to minimize the acetic acid concentration at the lyophilisation stage in order to achieve a stable and amorphous freeze-dried product. The minimum acetic acid concentration to achieve acceptable dispersibility and solubility of the individual fluorocarbon-linked peptides was determined. The final concentration of fluorocarbon-linked peptide after initial acetic acid dispersion was 2 μmol/ml and after dilution with mannitol, 0.250 μmol/ml."}, "[2]": {"format": "physicochemical", "details": "for Further dilution in Mannitol:Water Solubility: FCP 0.167 mM, 1.33% (w/v) mannitol, cloudiness / particulates; for Dispersion in Water Solubility: FCP 1.333 mM in water, vortexed and sonicated, cloudiness (Clear/Cloudy−/Cloudy/Cloudy+) / particulates", "protocol": "The solubility of each FCP in water was assessed. Each FCP was dispersed in 300 μl of water to a final concentration of 1.333 mM and vortexed and sonicated. The typical dispersion conditions were four sequences of three minutes bath sonication interspersed by 30 seconds vortexing. After inspection, the resulting solution was diluted with a mannitol solution (a candidate lyophilisation medium, final concentration of peptide 0.167 mM, 1.33% (w/v) mannitol). Solubility was assessed by visual observation of the cloudiness of the resulting dispersion (scaled: Clear/Cloudy−/Cloudy/Cloudy+) and presence of particulates. […]"}, "[3]": {"format": "physicochemical", "details": "1.33% mannitol, 0.22 μm PVDF filter; for YIELD % of each FCP following sterile filtration, MIX 1: MIX 1 dispersed in water; for YIELD % of each FCP following sterile filtration, MIX 2: MIX 2 dispersed in water"}, "[4]": {"details": "10 mg net/ml in 10% or 80% acetic acid"}}, "note": "Entries after “also recorded” stand apart in the source; their conditions may differ. Like-named read-outs stand apart in the source and are kept apart here.", "data": [{"smiles": "CC[C@H](C)[C@H](NC(=O)[C@H](C)NC(=O)[C@H](CCSC)NC(=O)[C@H](Cc1c[nH]cn1)NC(=O)[C@@H](N)CCCCNC(=O)CCC(F)(F)C(F)(F)C(F)(F)C(F)(F)C(F)(F)C(F)(F)C(F)(F)C(F)(F)F)C(=O)N[C@H](C(=O)N[C@@H](CCCCN)C(=O)N[C@@H](CCCCN)C(=O)N[C@@H](Cc1ccc(O)cc1)C(=O)N[C@H](C(=O)N[C@@H](CO)C(=O)NCC(=O)N[C@@H](CCCNC(=N)N)C(=O)N[C@@H](CCC(N)=O)C(=O)N[C@@H](CCC(=O)O)C(=O)N[C@@H](CCCCN)C(=O)N[C@@H](CC(N)=O)C(=O)N1CCC[C@H]1C(=O)N[C@@H](CO)C(=O)N[C@@H](CC(C)C)C(=O)N[C@@H](CCCNC(=N)N)C(=O)N[C@@H](CCSC)C(=O)N[C@@H](CCCCN)C(=O)N[C@@H](Cc1c[nH]c2ccccc12)C(=O)N[C@@H](CCSC)C(=O)N[C@@H](CCSC)C(=O)N[C@@H](C)C(=O)N[C@@H](CCSC)C(=O)N[C@@H](CCCCN)C(=O)N[C@@H](Cc1ccc(O)cc1)C(=O)N1CCC[C@H]1C(=O)N[C@H](C(=O)N[C@H](C(=O)N[C@@H](C)C(=O)N[C@@H](CC(=O)O)C(=O)N[C@@H](CCCCN)C(N)=O)[C@@H](C)O)[C@@H](C)CC)[C@@H](C)O)[C@@H](C)CC", "note": "[FCP1]", "values": [{"measurement": "Percentage acetic acid (% v/v): minimum concentration for acceptable dispersibility and solubility", "setting": "[1]", "value": 10, "unit": "% v/v"}, {"measurement": "Visual appearance after dispersion", "setting": "[1]", "value": "Clear"}, {"measurement": "Ease of solubility, Cycle 1 Vortexing", "setting": "10 mg net/ml in 10% (FCP1, 2, 4, 5) or 80% (FCP9, 8) acetic acid", "value": "Clear"}, {"measurement": "Ease of solubility, Cycle 1 Sonication", "setting": "[4]", "value": "Clear"}, {"measurement": "Ease of solubility, Cycle 2 Sonication", "setting": "[4]", "value": "Clear"}, {"measurement": "Ease of solubility, Cycle 2 Vortexing", "setting": "[4]", "value": "Clear"}, {"measurement": "Ease of solubility, Cycle 3 Sonication", "setting": "[4]", "value": "Clear"}, {"measurement": "Ease of solubility, Cycle 3 Vortexing", "setting": "[4]", "value": "Clear"}, {"measurement": "Visual appearance after dispersion", "setting": "10 mg net/ml in AcOH 10% or 80%", "value": "Clear"}, {"measurement": "Further dilution in Mannitol:Water Solubility", "setting": "[2]", "value": "partially soluble; also recorded: Clear/Particulates"}, {"measurement": "Dispersion in Water Solubility", "setting": "[2]", "value": "Cloudy/Particulates"}, {"measurement": "YIELD % of each FCP following sterile filtration, MIX 1", "setting": "[3]", "value": 89.9, "unit": "%"}]}, {"smiles": "CC[C@H](C)[C@H](NC(=O)[C@@H]1CCCN1C(=O)[C@H](C)NC(=O)[C@@H](N)CCCCNC(=O)CCC(F)(F)C(F)(F)C(F)(F)C(F)(F)C(F)(F)C(F)(F)C(F)(F)C(F)(F)F)C(=O)N[C@@H](CCSC)C(=O)N[C@@H](Cc1ccccc1)C(=O)N[C@@H](CO)C(=O)N[C@@H](CC(N)=O)C(=O)N[C@@H](CCCCN)C(=O)N[C@@H](CCSC)C(=O)N[C@@H](C)C(=O)N[C@@H](CCCNC(=N)N)C(=O)N[C@@H](CC(C)C)C(=O)NCC(=O)N[C@@H](CCCCN)C(=O)NCC(=O)N[C@@H](Cc1ccc(O)cc1)C(=O)N[C@@H](CCSC)C(=O)N[C@@H](Cc1ccccc1)C(=O)N[C@@H](CCC(=O)O)C(=O)N[C@@H](CO)C(=O)N[C@@H](CCCCN)C(=O)N[C@@H](CO)C(=O)N[C@@H](CCSC)C(=O)N[C@@H](CCCCN)C(=O)N[C@@H](CC(C)C)C(=O)N[C@@H](CCCNC(=N)N)C(=O)N[C@H](C(=O)N[C@@H](CCC(N)=O)C(=O)N[C@H](C(=O)N1CCC[C@H]1C(=O)N[C@@H](C)C(=O)N[C@@H](CCC(=O)O)C(=O)N[C@@H](CCSC)C(=O)N[C@@H](CC(C)C)C(=O)N[C@@H](C)C(N)=O)[C@@H](C)CC)[C@@H](C)O", "note": "[FCP3]", "values": [{"measurement": "Further dilution in Mannitol:Water Solubility", "setting": "[2]", "value": "partially soluble; also recorded: Clear/Particulates"}, {"measurement": "Dispersion in Water Solubility", "setting": "[2]", "value": "Cloudy−/Particulates"}, {"measurement": "YIELD % of each FCP following sterile filtration, MIX 1", "setting": "[3]", "value": 28.6, "unit": "%"}]}, {"smiles": "CC[C@H](C)[C@H](NC(=O)[C@H](CO)NC(=O)[C@@H](NC(=O)CNC(=O)[C@H](CC(C)C)NC(=O)[C@@H](NC(=O)[C@@H](NC(=O)[C@H](CO)NC(=O)[C@H](CC(C)C)NC(=O)[C@H](CCSC)NC(=O)[C@H](CC(N)=O)NC(=O)[C@H](Cc1ccccc1)NC(=O)[C@H](CCSC)NC(=O)CNC(=O)[C@H](CCSC)NC(=O)[C@H](CCSC)NC(=O)[C@H](CCSC)NC(=O)CNC(=O)[C@@H]1CCCN1C(=O)[C@H](CO)NC(=O)[C@@H](N)CCCCNC(=O)CCC(F)(F)C(F)(F)C(F)(F)C(F)(F)C(F)(F)C(F)(F)C(F)(F)C(F)(F)F)[C@@H](C)O)C(C)C)C(C)C)C(=O)N[C@@H](CC(C)C)C(=O)N[C@@H](CC(N)=O)C(=O)N[C@@H](CC(C)C)C(=O)NCC(=O)N[C@@H](CCC(N)=O)C(=O)N[C@@H](CCCCN)C(=O)N[C@@H](CCCCN)C(=O)N[C@@H](Cc1ccc(O)cc1)C(=O)N[C@H](C(=O)N[C@@H](CCCCN)C(=O)N[C@H](C(=O)N[C@H](C(=O)N[C@@H](Cc1ccc(O)cc1)C(N)=O)[C@@H](C)O)[C@@H](C)O)[C@@H](C)O", "note": "[FCP6]", "values": [{"measurement": "Percentage acetic acid (% v/v): minimum concentration for acceptable dispersibility and solubility", "setting": "[1]", "value": 80, "unit": "% v/v"}, {"measurement": "Visual appearance after dispersion", "setting": "[1]", "value": "Clear"}, {"measurement": "Physical stability of formulation at less than 80% (v/v) acetic acid", "setting": "[1]; gel or soluble particulates formed over time", "value": "physically unstable over time"}, {"measurement": "Further dilution in Mannitol:Water Solubility", "setting": "[2]", "value": "partially soluble; also recorded: Clear/Particulates"}, {"measurement": "Dispersion in Water Solubility", "setting": "[2]", "value": "Cloudy−/Particulates"}, {"measurement": "YIELD % of each FCP following sterile filtration, MIX 1", "setting": "[3]", "value": 74.1, "unit": "%"}, {"measurement": "YIELD % of each FCP following sterile filtration, MIX 2", "setting": "[3]", "value": 8.8, "unit": "%"}]}, {"smiles": "CC[C@H](C)[C@H](NC(=O)[C@H](CO)NC(=O)[C@H](CC(C)C)NC(=O)[C@@H](NC(=O)[C@H](CC(N)=O)NC(=O)[C@H](CCCNC(=N)N)NC(=O)[C@H](Cc1ccccc1)NC(=O)[C@H](Cc1c[nH]c2ccccc12)NC(=O)[C@H](CCC(=O)O)NC(=O)[C@@H]1CCCN1C(=O)[C@H](CCC(N)=O)NC(=O)[C@H](CC(N)=O)NC(=O)[C@H](CCCCN)NC(=O)[C@@H](NC(=O)[C@@H](NC(=O)[C@H](Cc1ccc(O)cc1)NC(=O)[C@@H](N)CCCCNC(=O)CCC(F)(F)C(F)(F)C(F)(F)C(F)(F)C(F)(F)C(F)(F)C(F)(F)C(F)(F)F)[C@@H](C)CC)[C@@H](C)O)[C@@H](C)CC)C(=O)N[C@@H](C)C(=O)N1CCC[C@H]1C(=O)N[C@H](C(=O)N[C@@H](CCSC)C(=O)N[C@@H](Cc1ccccc1)C(=O)N[C@@H](CO)C(=O)N[C@@H](CC(N)=O)C(=O)N[C@@H](CCCCN)C(=O)N[C@@H](CCSC)C(=O)N[C@@H](C)C(=O)N[C@@H](CCCNC(=N)N)C(=O)N[C@@H](CC(C)C)C(=O)NCC(=O)N[C@@H](CCCCN)C(=O)NCC(=O)N[C@@H](Cc1ccc(O)cc1)C(=O)N[C@@H](CCSC)C(=O)N[C@@H](Cc1ccccc1)C(=O)N[C@@H](CCC(=O)O)C(N)=O)[C@@H](C)CC", "note": "[FCP10]", "values": [{"measurement": "Further dilution in Mannitol:Water Solubility", "setting": "[2]", "value": "partially soluble; also recorded: Clear/Particulates"}, {"measurement": "Dispersion in Water Solubility", "setting": "[2]", "value": "Cloudy−/Particulates"}, {"measurement": "YIELD % of each FCP following sterile filtration, MIX 2", "setting": "[3]", "value": 90.7, "unit": "%"}]}, {"smiles": "CC[C@H](C)[C@H](NC(=O)[C@H](CCCNC(=N)N)NC(=O)[C@H](CCSC)NC(=O)CNC(=O)[C@H](CO)NC(=O)CNC(=O)[C@H](CCCNC(=N)N)NC(=O)[C@@H](NC(=O)[C@H](CC(N)=O)NC(=O)[C@@H](NC(=O)[C@@H](NC(=O)[C@H](CC(C)C)NC(=O)[C@H](CO)NC(=O)[C@H](CO)NC(=O)[C@H](Cc1ccccc1)NC(=O)[C@H](CCC(N)=O)NC(=O)[C@H](CCSC)NC(=O)[C@H](CCCNC(=N)N)NC(=O)[C@H](CO)NC(=O)[C@H](CCC(N)=O)NC(=O)[C@@H](N)CCCCNC(=O)CCC(F)(F)C(F)(F)C(F)(F)C(F)(F)C(F)(F)C(F)(F)C(F)(F)C(F)(F)F)[C@@H](C)O)C(C)C)C(C)C)C(=O)N[C@@H](CC(C)C)C(=O)N[C@H](C(=O)N[C@@H](CCCNC(=N)N)C(=O)NCC(=O)N[C@@H](CC(N)=O)C(=O)N[C@@H](CO)C(=O)N1CCC[C@H]1C(=O)N[C@H](C(=O)N[C@@H](Cc1ccccc1)C(=O)N[C@@H](CC(N)=O)C(=O)N[C@@H](Cc1ccc(O)cc1)C(=O)N[C@@H](CC(N)=O)C(=O)N[C@@H](CCCCN)C(N)=O)C(C)C)C(C)C", "note": "[FCP11]", "values": [{"measurement": "Further dilution in Mannitol:Water Solubility", "setting": "[2]", "value": "fully soluble; also recorded: Clear/No Particulates"}, {"measurement": "Dispersion in Water Solubility", "setting": "[2]", "value": "fully soluble; also recorded: Clear/No Particulates"}, {"measurement": "YIELD % of each FCP following sterile filtration, MIX 2", "setting": "[3]", "value": 49.4, "unit": "%"}]}]}
